Measurements as given in patent US10513511B2, “Aqueous suspension formulation comprising 4-(4-(4-(((3R,5R)-5-((1H-1,2,4-triazol-1-yl)methyl)-5-(2,4-difluoro-phenyl)tetrahydrofuran-3-yl)methoxy)-3-methylphenyl) or a pharmaceutically acceptable salt thereof” (PULMOCIDE LIMITED, priority 2015, dated 2019).
Values after ≈ are worked out from the molar mass of the structure shown.

Tests used:
Assay type in all cases: cell-based
[1] = system: Aspergillus fumigatus NCPF2010; test: Planktonic fungus growth: broth microdilution assay (NCPF2010); conditions: Aspergillus fumigatus, NCPF2010, n = 2-3, read-out: MIC75 Values against Aspergillus fumigatus isolate NCPF2010
Procedure: (§1) This assay was conducted using a modified method published by EUCAST (Rodriguez-Tudela, et al., 2008). Spores of Aspergillus fumigatus (NCPF2010, NCPF7010 [methionine 220 mutation], NCPF7099 [Glycine G54 mutation]) from Public Health England, Wiltshire; TR34/L98H mutants from St Louis Hospital, Paris, France; TR46/Y121F/T289A mutants from University of Delhi, Delhi, India) were cultured in Sabouraud dextrose agar for 3 days. A stock spore suspension was prepared from a Sabouraud dextrose agar culture by washing with PBS-tween (10 mL; phosphate buffered saline containing 0.05% Tween-20, 100 U/mL penicillin and 100 U/mL streptomycin). The spore count was assessed using a Neubauer haemocytometer and then adjusted to 10^6 spores/mL with PBS. A working suspension of spores (2×10^5 spores/mL) was prepared in filter sterilised, BSA MOPS RPMI-1640 (50 mL; RPMI-1640 containing 2 mM L-glutamine, 0.5% BSA, 2% glucose, 0.165 M MOPS, buffered to pH 7 with NaOH).
(§2) For the assay, BSA MOPS RPMI-1640 (50 μL/well) was added throughout the 384-well plate (Catalogue number 353962, BD Falcon, Oxford, UK) first. Test compounds (0.5 μL DMSO solution) were then added in quadruplicate using an Integra VIAFLO 96 (Integra, Zizers, Switzerland), and mixed well using a plate mixer. Subsequently 50 μL of the working spore suspension prepared above was added to all wells except non-spore control wells. For non-spore control wells, BSA MOPS-RPMI solution (50 μL/well) was added instead. The plate was covered with a plastic lid, and incubated (35° C. with ambient air) for 48 hr. The OD of each well at 530 nm was determined using a multi-scanner (Clariostar: BMG, Buckinghamshire, UK). The percentage inhibition for each well was calculated and the MIC50, MIC75 and MIC90 values were calculated from the concentration-response curve generated for each test compound.

[2] = system: Aspergillus fumigatus L98H (TR34/L98H); test: Planktonic fungus growth: broth microdilution assay (L98H); conditions: Aspergillus fumigatus, read-out: MIC75 Values against Aspergillus fumigatus isolate L98H
Procedure: as §1, §2

[3] = system: Aspergillus fumigatus NCPF7099; test: Planktonic fungus growth: broth microdilution assay (NCPF7099); conditions: Aspergillus fumigatus, NCPF7099, n = 2-3, read-out: MIC75 Values against Aspergillus fumigatus isolate NCPF7099
Procedure: as §1, §2

[4] = system: Aspergillus fumigatus NCPF7100; test: Planktonic fungus growth: broth microdilution assay (NCPF7100); conditions: Aspergillus fumigatus, NCPF7100, read-out: MIC75 Values against Aspergillus fumigatus isolate NCPF7100
[5] = system: Aspergillus flavus ATCC204304; test: Fungus panel screening, CLSI broth microdilution; conditions: for MIC50: 50% inhibition by visual inspection (CLSI); for MIC: 100% inhibition by visual inspection (CLSI), read-out: MIC100
Procedure: (§3) Fungus panel screening was conducted by Eurofins Panlabs Inc. The MIC and MIC50 values of the test articles were determined following the guidelines of the CLSI: broth microdilution methods for yeast (CLSI M27-A2), (CLSI, 2002) and for filamentous fungi (CLSI M38-A), (CLSI, 2008).

[6] = system: Aureobasidium pullulans ATCC9348; test: Fungus panel screening, CLSI broth microdilution; conditions: for MIC50: 50% inhibition by visual inspection (CLSI); for MIC: 100% inhibition by visual inspection (CLSI), read-out: MIC100
Procedure: as §3

[7] = system: Candida albicans 20183.073; test: Fungus panel screening, CLSI broth microdilution; conditions: for MIC50: 50% inhibition by visual inspection (CLSI); for MIC: 100% inhibition by visual inspection (CLSI), read-out: MIC100
Procedure: as §3

[8] = system: Candida albicans 20240.047; test: Fungus panel screening, CLSI broth microdilution; conditions: for MIC50: 50% inhibition by visual inspection (CLSI); for MIC: 100% inhibition by visual inspection (CLSI), read-out: MIC100
Procedure: as §3

[9] = system: Candida albicans ATCC10231; test: Fungus panel screening, CLSI broth microdilution; conditions: for MIC50: 50% inhibition by visual inspection (CLSI); for MIC: 100% inhibition by visual inspection (CLSI), read-out: MIC100
Procedure: as §3

Candida glabrata 20197.1 = test: Fungus panel screening, CLSI broth microdilution; conditions: Nakaseomyces glabratus; for MIC50: 50% inhibition by visual inspection (CLSI); for MIC: 100% inhibition by visual inspection (CLSI), read-out: MIC100
Procedure: as §3

[10] = system: Candida glabrata AT0036583; test: Fungus panel screening, CLSI broth microdilution; conditions: Nakaseomyces glabratus; for MIC50: 50% inhibition by visual inspection (CLSI); for MIC: 100% inhibition by visual inspection (CLSI), read-out: MIC100
Procedure: as §3

Candida krusei ATCC6258 = test: Fungus panel screening, CLSI broth microdilution; conditions: Pichia kudriavzevii; for MIC50: 50% inhibition by visual inspection (CLSI); for MIC: 100% inhibition by visual inspection (CLSI), read-out: MIC100
Procedure: as §3

[11] = system: Chaectomium globosum ATCC44699; test: Fungus panel screening, CLSI broth microdilution; conditions: for MIC50: 50% inhibition by visual inspection (CLSI); for MIC: 100% inhibition by visual inspection (CLSI), read-out: MIC100
Procedure: as §3

[12] = system: Cryptococcus neoformans ATCC24067; test: Fungus panel screening, CLSI broth microdilution; conditions: for MIC50: 50% inhibition by visual inspection (CLSI); for MIC: 100% inhibition by visual inspection (CLSI), read-out: MIC100
Procedure: as §3

[13] = system: Fusarium graminerarum ATCC16106; test: Fungus panel screening, CLSI broth microdilution; conditions: for MIC50: 50% inhibition by visual inspection (CLSI); for MIC: 100% inhibition by visual inspection (CLSI), read-out: MIC100
Procedure: as §3

[14] = system: Penicillium chrysogenum ATCC9480; test: Fungus panel screening, CLSI broth microdilution; conditions: for MIC50: 50% inhibition by visual inspection (CLSI); for MIC: 100% inhibition by visual inspection (CLSI), read-out: MIC100
Procedure: as §3

[15] = system: Rhizopus oryzae ATCC11145; test: Fungus panel screening, CLSI broth microdilution; conditions: Rhizopus arrhizus; for MIC50: 50% inhibition by visual inspection (CLSI); for MIC: 100% inhibition by visual inspection (CLSI), read-out: MIC100
Procedure: as §3

[16] = system: Trichophyton rubrum ATCC10218; test: Fungus panel screening, CLSI broth microdilution; conditions: for MIC: 100% inhibition by visual inspection (CLSI), read-out: MIC100; for MIC50: 50% inhibition by visual inspection (CLSI)
Procedure: as §3

SMILES	MIC [1] [µM]	MIC [2] [µM]	MIC [3] [µM]	MIC [4] [µM]	MIC50 [5] [µg/mL]	MIC [5] [µg/mL]	MIC50 [6] [µg/mL]	MIC [6] [µg/mL]	MIC50 [7] [µg/mL]	MIC [7] [µg/mL]	MIC50 [8] [µg/mL]	MIC [8] [µg/mL]	MIC50 [9] [µg/mL]	MIC [9] [µg/mL]	MIC50 (Candida glabrata 20197.1) [µg/mL]	MIC (Candida glabrata 20197.1) [µg/mL]	MIC50 [10] [µg/mL]	MIC [10] [µg/mL]	MIC50 (Candida krusei ATCC6258) [µg/mL]	MIC (Candida krusei ATCC6258) [µg/mL]	further results
Cc1cc(N2CCN(c3ccc(C(=O)N[C@H]4CCCC[C@@H]4O)cc3)CC2)ccc1OC[C@@H]1CO[C@@](Cn2cncn2)(c2ccc(F)cc2F)C1 [Compound (Ia), 4-(4-(4-(((3R,5R)-5-((1H-1,2,4-triazol-1-yl)methyl)-5-(2,4-difluorophenyl)tetrahydrofuran-3-yl)methoxy)-3-methylphenyl)piperazin-1-yl)-N-((1S,2S)-2-hydroxycyclohexyl) benzamide]	0.00281 (≈ 0.00193 µg/mL)	0.0127 (≈ 0.00872 µg/mL)	0.01 (≈ 0.00687 µg/mL)	0.0127 (≈ 0.00872 µg/mL)	0.13 (≈ 0.189 µM)	0.13 (≈ 0.189 µM)	0.25 (≈ 0.364 µM)	1 (≈ 1.46 µM)	0.125 (≈ 0.182 µM)	> 2	0.016 (≈ 0.0233 µM)	> 2	0.25 (≈ 0.364 µM)	> 2	0.0078 (≈ 0.0114 µM)	> 2	0.25 (≈ 0.364 µM)	> 2	0.25 (≈ 0.364 µM)	0.25 (≈ 0.364 µM)	MIC50 [11]: 0.031 µg/mL (≈ 0.0451 µM); MIC [11]: 0.13 µg/mL (≈ 0.189 µM); MIC50 [12]: 0.016 µg/mL (≈ 0.0233 µM); MIC [12]: 0.063 µg/mL (≈ 0.0917 µM); MIC50 [13]: 0.13 µg/mL (≈ 0.189 µM); MIC [13]: 0.5 µg/mL (≈ 0.728 µM); MIC50 [14]: 0.063 µg/mL (≈ 0.0917 µM); MIC [14]: 0.13 µg/mL (≈ 0.189 µM); MIC50 [15]: 0.25 µg/mL (≈ 0.364 µM); MIC [15]: 0.5 µg/mL (≈ 0.728 µM); MIC [16]: 0.031 µg/mL (≈ 0.0451 µM)
CC[C@@H]([C@H](C)O)n1ncn(-c2ccc(N3CCN(c4ccc(OC[C@@H]5CO[C@@](Cn6cncn6)(c6ccc(F)cc6F)C5)cc4)CC3)cc2)c1=O [Posaconazole, reference compound]	0.0109 (≈ 0.00764 µg/mL)	0.0983 (≈ 0.0689 µg/mL)	0.167 (≈ 0.117 µg/mL)	0.0597 (≈ 0.0418 µg/mL)	0.063 (≈ 0.0899 µM)	0.13 (≈ 0.186 µM)	0.25 (≈ 0.357 µM)	1 (≈ 1.43 µM)	0.25 (≈ 0.357 µM)	> 8	0.031 (≈ 0.0442 µM)	> 8	0.13 (≈ 0.186 µM)	> 8	0.031 (≈ 0.0442 µM)	> 8	0.5 (≈ 0.713 µM)	> 8	0.13 (≈ 0.186 µM)	0.25 (≈ 0.357 µM)	MIC50 [11]: 0.13 µg/mL (≈ 0.186 µM); MIC [11]: 0.25 µg/mL (≈ 0.357 µM); MIC50 [12]: 0.016 µg/mL (≈ 0.0228 µM); MIC [12]: 0.25 µg/mL (≈ 0.357 µM); MIC50 [13]: > 8 µg/mL; MIC [13]: > 8 µg/mL; MIC50 [14]: 0.063 µg/mL (≈ 0.0899 µM); MIC [14]: 0.13 µg/mL (≈ 0.186 µM); MIC50 [15]: 0.13 µg/mL (≈ 0.186 µM); MIC [15]: > 8 µg/mL; MIC50 [16]: < 0.008 µg/mL; MIC [16]: 0.031 µg/mL (≈ 0.0442 µM)
C[C@@H](c1ncncc1F)[C@](O)(Cn1cncn1)c1ccc(F)cc1F [Voriconazole]	0.511 (≈ 0.179 µg/mL)	2.58 (≈ 0.903 µg/mL)	0.113 (≈ 0.0395 µg/mL)	0.543 (≈ 0.19 µg/mL)	1 (≈ 2.86 µM)	2 (≈ 5.73 µM)	> 8	> 8	4 (≈ 11.5 µM)	> 8	0.031 (≈ 0.0887 µM)	> 8	0.25 (≈ 0.716 µM)	> 8	0.031 (≈ 0.0887 µM)	> 8	0.25 (≈ 0.716 µM)	> 8	0.25 (≈ 0.716 µM)	1 (≈ 2.86 µM)	MIC50 [11]: 0.5 µg/mL (≈ 1.43 µM); MIC [11]: 1 µg/mL (≈ 2.86 µM); MIC50 [12]: 0.016 µg/mL (≈ 0.0458 µM); MIC [12]: 1 µg/mL (≈ 2.86 µM); MIC50 [13]: > 8 µg/mL; MIC [13]: > 8 µg/mL; MIC50 [14]: 1 µg/mL (≈ 2.86 µM); MIC [14]: 2 µg/mL (≈ 5.73 µM); MIC50 [15]: 8 µg/mL (≈ 22.9 µM); MIC [15]: > 8 µg/mL; MIC50 [16]: < 0.008 µg/mL; MIC [16]: 0.063 µg/mL (≈ 0.18 µM)
